Several values for one entry are separate records, joined by “and”; a condition that tells them apart may be missing. Equal values may be shown once.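 Assay format: 96-well plates, 48-hour exposure. Here, GI50 denotes the concentration required for 50% inhibition of growth.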 Activity calls are given as the source filed them. No stated cut-off is given here; in the data, active = GI50 up to about 1.1 µM and inactive = higher.
Key:
Test in all cases: NCI tumour cell line growth inhibition, 48 h
TK-10 = test system: TK-10
SR = test system: SR
HCC 2998 = test system: HCC 2998
SNB-75 = test system: SNB-75
SK-OV-3 = test system: SK-OV-3
IGROV-1 = test system: IGROV-1
M14 = test system: M14
COLO 205 = test system: COLO 205
HCT-116 = test system: HCT-116
PC-3 = test system: PC-3
Hs-578T = test system: Hs-578T
ACHN = test system: ACHN
HOP-62 = test system: HOP-62
OVCAR-3 = test system: OVCAR-3
SN12C = test system: SN12C
SW-620 = test system: SW-620
NCI-H23 = test system: NCI-H23
LOX IMVI = test system: LOX IMVI
SK-MEL-5 = test system: SK-MEL-5
K562 = test system: K562

Measured: GI50

Oc1ccc(C[C@@H]2CN[C@H](Cc3ccc(O)c(Br)c3)CN2)cc1
inactive: TK-10 > 100 µM | SR > 100 µM | HCC 2998 > 100 µM | SNB-75 > 100 µM | SK-OV-3 > 100 µM | IGROV-1 > 100 µM | M14 > 100 µM | COLO 205 > 100 µM | HCT-116 > 100 µM | PC-3 > 100 µM | Hs-578T > 100 µM | ACHN > 100 µM | HOP-62 > 100 µM | OVCAR-3 > 100 µM | SN12C > 100 µM | SW-620 > 100 µM | NCI-H23 > 100 µM

Cc1cc(-c2cc(C)c(O)c(C(C)(C)C)c2)cc(C(C)(C)C)c1O
inactive: TK-10 11.2 µM and 12.1 µM | SR 4.09 µM | HCC 2998 4.54 µM and 4.59 µM | SNB-75 14 µM and 12.6 µM | SK-OV-3 16.7 µM and 14.2 µM | IGROV-1 20.8 µM and 12 µM | LOX IMVI 10.1 µM and 11.5 µM | M14 10.6 µM and 12.8 µM | SK-MEL-5 10.6 µM and 14.7 µM | COLO 205 11.1 µM and 13.6 µM | K562 9.25 µM and 7.69 µM | HCT-116 6.21 µM and 10.9 µM | Hs-578T 12.8 µM and 15.3 µM | ACHN 10.6 µM and 15.7 µM | HOP-62 17.8 µM and 17.3 µM | OVCAR-3 12.2 µM and 14.1 µM | SN12C 13.4 µM and 12.3 µM | SW-620 16.4 µM and 11 µM | NCI-H23 10.4 µM and 12.9 µM

NC1c2c(Cl)sc(Cl)c2C(=O)C1O (stereo unspecified)
inactive: TK-10 > 100 µM | HCC 2998 17 µM | SNB-75 33.6 µM | SK-OV-3 > 100 µM | IGROV-1 57.9 µM | LOX IMVI 23.4 µM | M14 32.3 µM | SK-MEL-5 26.9 µM | COLO 205 18.2 µM | K562 29.4 µM | HCT-116 29.2 µM | PC-3 > 100 µM | Hs-578T 35.1 µM | ACHN 27.5 µM | OVCAR-3 30.8 µM | SN12C 15.8 µM | SW-620 17.4 µM | NCI-H23 15.6 µM

CCc1nn(S(=O)(=O)c2ccc(C)cc2)c2c1CS(=O)(=O)CC2
inactive: TK-10 > 100 µM | SNB-75 > 100 µM | SK-OV-3 69.3 µM | M14 > 100 µM | SK-MEL-5 > 100 µM | COLO 205 > 100 µM | K562 > 100 µM | HCT-116 > 100 µM | PC-3 > 100 µM | Hs-578T 28 µM | ACHN > 100 µM | HOP-62 84.1 µM | OVCAR-3 > 100 µM | SN12C > 100 µM | SW-620 > 100 µM | NCI-H23 > 100 µM

O=NN1C(c2ccccc2)CC(=NO)CC1c1ccccc1 (stereo unspecified)
inactive: TK-10 > 100 µM | HCC 2998 79.1 µM | SNB-75 88.5 µM | SK-OV-3 > 100 µM | IGROV-1 > 100 µM | LOX IMVI > 100 µM | M14 > 100 µM | SK-MEL-5 > 100 µM | COLO 205 > 100 µM | K562 43.8 µM | HCT-116 71.1 µM | PC-3 70.3 µM | Hs-578T > 100 µM | ACHN > 100 µM | HOP-62 > 100 µM | OVCAR-3 > 100 µM | SN12C > 100 µM | SW-620 > 100 µM | NCI-H23 > 100 µM

CC1(CCC(=O)OC2CCCCC2)OCCO1
inactive: TK-10 > 100 µM | SR > 100 µM | SNB-75 > 100 µM | SK-OV-3 > 100 µM | IGROV-1 > 100 µM | LOX IMVI > 100 µM | M14 > 100 µM | SK-MEL-5 > 100 µM | COLO 205 > 100 µM | K562 > 100 µM | HCT-116 > 100 µM | PC-3 > 100 µM | Hs-578T > 100 µM | ACHN > 100 µM | HOP-62 > 100 µM | OVCAR-3 > 100 µM | SN12C > 100 µM | SW-620 > 100 µM | NCI-H23 > 100 µM

COC(=O)[C@H](Cc1ccccc1)NC(=O)N(CCC#N)CCN(C(=O)N[C@@H](Cc1ccccc1)C(=O)OC)c1ccccc1
inactive: TK-10 20 µM | HCC 2998 28.2 µM | SNB-75 17.5 µM | SK-OV-3 46.8 µM | IGROV-1 20.8 µM | LOX IMVI 22.5 µM | M14 24.9 µM | SK-MEL-5 22.9 µM | COLO 205 25 µM | HCT-116 28.1 µM | PC-3 32.1 µM | Hs-578T 32.7 µM | ACHN 18.9 µM | HOP-62 41.1 µM | OVCAR-3 19.9 µM | SN12C 32.2 µM | SW-620 35.1 µM | NCI-H23 32.7 µM
